In paper PMC5463454 (Cancer discovery, 2016):
Like-named read-outs stand apart in the source and are kept apart here.

Tests used:
[1] = tested on: tumor cell line and patient-derived xenograft models; test: Xenograft tumor growth inhibition; assay type: in vivo, mice; conditions: day 21, daily oral 100 mg/kg
[2] = tested on: cancer cell lines; test: Cell viability assay; assay type: cell-based
[3] = tested on: protein kinase A; conditions: cited from earlier work
[4] = models with alterations in PTEN or PIK3CA, n = 21
[5] = models without alterations, n = 6

SMILES: CC(C)NC[C@@H](C(=O)N1CCN(c2ncnc3c2[C@H](C)C[C@H]3O)CC1)c1ccc(Cl)cc1 [Ipatasertib]
- mean %TGI (±SEM) [1, 4]: 95 ± 11%
- median %TGI [1, 4]: 97%
- mean %TGI (±SEM) [1, 5]: 38 ± 12%
- median %TGI [1, 5]: 44%
- IC50 ([2]; read-out: mean IC50 (±SEM), cell viability, cell lines with PTEN loss or PIK3CA mutations, n = 60): 4.8 ± 0.56 µM
- IC50 ([2]; read-out: mean IC50, cell viability, cells with PIK3CA alterations, n = 40): 5 ± 0.71 µM
- IC50 ([2]; read-out: mean IC50, cell viability, cells with PTEN alterations, n = 33): 3.8 ± 0.73 µM
- IC50 ([2]; read-out: mean IC50, cell viability, cells without PIK3CA alterations, n = 60): 7.1 ± 0.5 µM
- IC50 ([2]; read-out: mean IC50, cell viability, cells without PTEN alterations, n = 67): 7.4 ± 0.46 µM
- IC50 ([2]; read-out: median IC50, cell viability, cell lines with PTEN loss or PIK3CA mutations, n = 60): 2.2 µM
- IC50 ([2]; read-out: median IC50, cell viability, cells with PIK3CA alterations, n = 40): 2.2 µM
- IC50 ([2]; read-out: median IC50, cell viability, cells with PTEN alterations, n = 33): 1.3 µM
- IC50 ([2]; read-out: median IC50, cell viability, cells without PIK3CA alterations, n = 60): 10 µM
- IC50 ([2]; read-out: median IC50, cell viability, cells without PTEN alterations, n = 67): 10 µM
- selectivity over protein kinase A [3]: greater than 600 fold
